The text below walks through data of patent publication USRE38576E1, “Stabilized aspirin compositions and method of preparation for oral and topical use” (priority 2000, dated 2004).

For data set [1] the following is noted: dimethyl isosorbate as solvent; cited from earlier work.
Data set [2] in a line: pH of KSA / KASA formulas. It is filed as physicochemical. The method, then:
In 50 ml water, 37 gms KOH are mixed with 76 gms SA. […] Administration is by gradual ingestion by sipping. A much higher dose of 2 gm KSA can be administered as needed using two 1 gm doses separated by an interval of time so that the doses overlap closely.
An example of a topical KSA is as follows: Using the supersaturated KSA formula of Example 1, a topical formula was prepared as follows: 225 ml Aloe Vera Gel was mixed with 2½ ml liquid castile soap (Dr. Bronner's was used), and 2½ ml vegetable glycerin. Dry ingredients of 900 mg citric acid, 600 mg guar gum and 14 gm dehydrated KSA are separately mixed.

[3] abbreviates: 1 gm dehydrated product mixed with 225 ml water.

In the case of `CC(=O)Oc1ccccc1C(=O)O` [ASA, acetylsalicylic acid], the “concentration of ASA achieved in solution” value in data set [1] is listed as 280 mg of ASA/ml.
The compound `CC(=O)Oc1ccccc1C(=O)[O-].[K+]` [KASA, potassium acetylsalicyclic acid] gave a pH in data set [2] (setting [3]) of 8.42.
For the compound `O=C(O)c1ccccc1O.[K]` [KSA, potassium salicylic acid], the pH is 8.90 in data set [2] (setting [3]) and 12.0-13.0 in data set [2] (concentrated solution as prepared, before dehydration).
